# From patent US3974168A, “Tricycle substituted acetones” (Yoshitomi Pharmaceutical Industries, Ltd., priority 1973, dated 1976)
# What was measured:
# Ultraviolet Erythema = Ultraviolet Erythema Method (anti-inflammatory action); assay type: in vivo; details: guinea pigs, 2 hours after irradiation, half dose 1 hour before and after
# Procedure: ii. Ultraviolet Erythema Method
# Using guinea pigs weighing 250-450 g, a rubber plate with 3 holes of 7 mm in diameter was fitted to the abdomen, hair of which had been removed in advance, and light was given by a mercury lamp (300 W) at the distance of 15 cm for 150 seconds. Two hours later the degree of erythema formation was marked according to the method of Winder et al. (Arch. Intern. Pharmacodyn., 116, 261 (1958)) and the efficacy rate was calculated, based on the criterion that 1.5 or less of total marks be effective. Half amount of the test solution was orally given 1 hour before and after the irradiation.
# Carrageenin Edema = Carrageenin Edema Method (anti-inflammatory action); assay type: in vivo, Donryu-strain male rats; details: carrageenin paw edema, rats, 2 hours after phlogogen
# Procedure: i. Carrageenin Edema Method
# According to the method of Winter et al. (Proc. Soc. Exptl. Biol. Med., 111, 544 (1962)), to one group of five Donryu-strain male rats each weighing about 130 g a test solution containing a test compound was administered orally. One hour later 0.05 ml of 1% carrageenin solution as a phlogogenic substance was subcutaneously injected to the paw of the hind leg. And 2 hours after the administration of phlogogen the bulk of the paw was measured in order to obtain the increment percentage over that before administration. The ratio of bulk increment between a control group and a test group was calculated as inhibition percentage.
# [1] = system: stretch symptoms induced by o-phenyl-p-benzoquinone; assay: Phenylquinone Method (analgesic action); assay type: in vivo, dd-strain male mice; details: mice, stretch symptoms over 30 minutes
# Procedure: Analgesic Action (Phenylquinone Method)
# According to the method of Hendershot et al. (J. Pharmacol. Exptl. Therap., 125, 237 (1957)), to one group of six dd-strain male mice each weighing about 20 g a test solution containing a test compound was orally administered and 1 hour later 0.2 ml/20 g of body weight of 0.02% o-phenyl-p-benzoquinone solution was intraperitoneally injected. The frequency of stretch symptoms thus induced was measured for 30 minutes, and compared with that of a control group, and the inhibition percentage (effect) was calculated. Results: Carrageenin Edema Method Compound Dose (mg/kg) p.o. % inhibition ______________________________________ A 5 50 25 68 B 10 36 25 61 C 25 32 50 63 ______________________________________
SMILES,Animals with score of 1.5 or less / Total animals (Ultraviolet Erythema; 100 mg/kg p.o.),Animals with score of 1.5 or less / Total animals (Ultraviolet Erythema; 250 mg/kg p.o.),% inhibition (Carrageenin Edema; 10 mg/kg p.o.) [%],% inhibition (Carrageenin Edema; 25 mg/kg p.o.) [%],% inhibition ([1]; 0.5 mg/kg p.o.) [%],% inhibition ([1]; 1 mg/kg p.o.) [%],Animals with score of 1.5 or less / Total animals (Ultraviolet Erythema; 1 mg/kg p.o.),Animals with score of 1.5 or less / Total animals (Ultraviolet Erythema; 2.5 mg/kg p.o.),% inhibition (Carrageenin Edema; 5 mg/kg p.o.) [%],% inhibition ([1]; 5 mg/kg p.o.) [%],% inhibition ([1]; 10 mg/kg p.o.) [%],Animals with score of 1.5 or less / Total animals (Ultraviolet Erythema; 5 mg/kg p.o.),% inhibition (Carrageenin Edema; 50 mg/kg p.o.) [%],% inhibition ([1]; 25 mg/kg p.o.) [%],% inhibition ([1]; 50 mg/kg p.o.) [%]
"CC(=O)C(C)c1ccc2c(c1)Cc1ccc(C)nc1O2 (stereo not drawn) [B, 3-(2-methyl-5H-[1]benzopyrano[2,3-b]pyridin-7-yl)-2-butanone]",2/5,4/5,36,61,24.0,63.4,–,–,–,–,–,–,–,–,–
"CC(=O)C(C)c1ccc2c(c1)Cc1cccnc1O2 (stereo not drawn) [A, 3-(5h-[1]benzopyrano[2,3-b]pyridin-7-yl)-2-butanone]",–,–,–,68,–,–,3/10,6/10,50,48.7,73.5,–,–,–,–
"CCC(=O)C(C)c1ccc2c(c1)Cc1cccnc1O2 (stereo not drawn) [C, 2-(5h-[1]benzopyrano[2,3-b]pyridin-7-yl)-3-pentanone]",–,–,–,32,–,–,2/5,–,–,–,–,3/5,63,41.6,75.2
